# Experimental data from ChEMBL document CHEMBL3576844, “Melanin-concentrating hormone receptor 1 antagonists for treatment of obesity” (ACS Med Chem Lett, 2015).
# What was measured:
# [1] = molecular target: Melanin-concentrating hormone receptor 1 (Homo sapiens) (UniProt Q99705); assay: Antagonist activity at human MCH1 receptor expressed in CHO cell membranes assessed as inhibition of MCH (4 to 19)-stimulated calcium mobilization at 0.1 uM measured every 2 secs by fluorometric analysis relative to control; type: functional, cell-based
# [2] = molecular target: Melanin-concentrating hormone receptor 1 (Homo sapiens) (UniProt Q99705); assay: Displacement of [125I]-MCH (4 to 19) from human MCH1 receptor expressed in CHO cell membranes at 0.1 uM after 1 hr by liquid scintillation counting analysis relative to control
# hERG (KCNH2) = hERG (KCNH2) (Homo sapiens, UniProt Q12809); assay: Inhibition of human ERG expressed in CHO cells at 10 uM after 5 mins by IonWorks assay relative to control; details: CHO cells expressing human ERG
# Sequence of hERG (KCNH2) (Q12809 whole entry): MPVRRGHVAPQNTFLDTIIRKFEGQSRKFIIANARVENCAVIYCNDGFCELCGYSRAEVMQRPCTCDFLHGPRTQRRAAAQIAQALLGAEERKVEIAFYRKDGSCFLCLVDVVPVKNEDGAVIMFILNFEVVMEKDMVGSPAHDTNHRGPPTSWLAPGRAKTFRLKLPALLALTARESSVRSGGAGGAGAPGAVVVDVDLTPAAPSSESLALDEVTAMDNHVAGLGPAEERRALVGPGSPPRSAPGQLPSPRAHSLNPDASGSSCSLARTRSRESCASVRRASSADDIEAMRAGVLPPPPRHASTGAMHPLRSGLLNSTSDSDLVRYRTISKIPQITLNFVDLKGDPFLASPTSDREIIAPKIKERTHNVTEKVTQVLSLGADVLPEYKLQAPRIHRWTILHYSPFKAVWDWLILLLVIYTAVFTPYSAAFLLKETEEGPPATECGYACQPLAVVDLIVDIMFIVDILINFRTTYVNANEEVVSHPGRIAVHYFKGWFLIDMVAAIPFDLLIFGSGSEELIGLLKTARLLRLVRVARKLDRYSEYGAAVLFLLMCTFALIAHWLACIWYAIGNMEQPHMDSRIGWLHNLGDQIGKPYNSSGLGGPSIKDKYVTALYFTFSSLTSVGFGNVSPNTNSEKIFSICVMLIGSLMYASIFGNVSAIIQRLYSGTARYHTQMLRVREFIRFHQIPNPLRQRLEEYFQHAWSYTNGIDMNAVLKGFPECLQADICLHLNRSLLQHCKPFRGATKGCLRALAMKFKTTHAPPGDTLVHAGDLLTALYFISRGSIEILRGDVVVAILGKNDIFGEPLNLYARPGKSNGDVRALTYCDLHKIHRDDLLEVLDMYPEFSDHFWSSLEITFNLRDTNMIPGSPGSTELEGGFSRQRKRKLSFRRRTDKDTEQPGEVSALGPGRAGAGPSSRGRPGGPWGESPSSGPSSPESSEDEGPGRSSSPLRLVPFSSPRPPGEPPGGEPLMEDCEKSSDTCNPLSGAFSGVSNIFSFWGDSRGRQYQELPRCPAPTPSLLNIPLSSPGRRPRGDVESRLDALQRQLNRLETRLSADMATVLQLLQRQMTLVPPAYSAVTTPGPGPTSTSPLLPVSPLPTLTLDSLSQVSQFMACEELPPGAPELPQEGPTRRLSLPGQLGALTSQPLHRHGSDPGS
# Sequence of Melanin-concentrating hormone receptor 1 (Homo sapiens) (Q99705 whole entry): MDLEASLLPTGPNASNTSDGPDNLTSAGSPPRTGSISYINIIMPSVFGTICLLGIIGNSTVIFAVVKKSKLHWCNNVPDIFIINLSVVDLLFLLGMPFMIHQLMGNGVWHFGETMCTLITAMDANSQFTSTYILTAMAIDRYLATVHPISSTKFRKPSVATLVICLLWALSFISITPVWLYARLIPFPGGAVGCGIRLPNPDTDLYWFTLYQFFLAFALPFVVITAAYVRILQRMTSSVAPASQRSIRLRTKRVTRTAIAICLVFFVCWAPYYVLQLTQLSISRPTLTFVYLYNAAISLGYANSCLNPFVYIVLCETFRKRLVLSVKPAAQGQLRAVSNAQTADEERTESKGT
SMILES,inhibition [1],inhibition [2],"inhibition at 5 min, 10 µM (hERG (KCNH2))"
Cc1c2cc(-n3ccc(OCc4csc(C(F)(F)F)c4)cc3=O)ccc2nn1C1CC1,55%,77%,
Cc1c2cc(-n3ccc(OCc4ccc(F)cc4)cc3=O)ccc2nn1C1CC1,70%,72%,
Cc1c2cc(-n3ccc(OCc4ccc(Cl)cc4)cc3=O)ccc2nn1C,83%,72%,22.1%
Cc1c2cc(-n3ccc(OCc4csc(C(F)(F)F)n4)cc3=O)ccc2nn1C1CC1,78%,50%,
